Reference: ChEMBL document CHEMBL3301361, “Experimental in vitro DMPK and physicochemical data on a set of publicly disclosed compounds”
Converted amounts (≈) assume the structure as drawn.

Legend:
physchem [1] = conditions: octan-1-ol/water, pH 7.4, LogD7.4
in vitro [2] = conditions: SD, HW or BN, rat, plasma
in vitro [3] = conditions: hepatocytes
in vitro [4] = conditions: human
in vitro [5] = conditions: human, plasma, PPB
physchem [6] = conditions: pH 7.4 buffer

Structure (SMILES)	logD (physchem [1])	fraction unbound at 5 h (in vitro [2])	hepatocyte CLint (in vitro [3]) [µL/min/1e6 cells]	microsomal CLint (in vitro [4]; liver microsomes) [µL/min/mg]	fraction unbound at 5 h (in vitro [5])	solubility thermodynamic (physchem [6]) [µM]	microsomal CLint (in vitro [4]; microsomes) [µL/min/mg]
Cc1ccc(C(NC(=O)c2ccccc2O)C(=O)Nc2c(C)cccc2C)s1 (stereo not given)	4.05	0.0075	70				
Cc1ccc(CO)cc1N(c1ccnc(Nc2cc(N3CCOCC3)cc(S(C)(=O)=O)c2)n1)C(C)C			53.7	> 150	0.0409	1.3 (≈ 0.665 µg/mL)	
Cc1ccc(S(=O)(=O)N2N=Cc3ccccc3B2O)cc1	0.05		6.17	14.1	0.0836		
O=C(Nc1cc(-c2ccncc2)c[nH]c1=O)[C@H](Cc1ccccc1)NC1(c2ccccn2)CC1	3.44		> 150	19.1	0.0287		
COc1cc(NC(=O)c2ccccn2)ccc1Cl		0.0447	> 150				
O=C(Nc1ccc(F)cc1)c1ccc(Cl)[n+]([O-])c1	1.38		149		0.465	355 (≈ 94.6 µg/mL)	< 3
CCCS(=O)(=O)N1N=Cc2cc(Cl)ccc2B1O	-0.4		< 3	9.77	0.17		
Cc1cc(CCCOc2c(Cl)cc(C3=NCCO3)cc2Cl)on1	3.72		> 150		0.0034		66.1
Cc1ccc(S(=O)(=O)Nc2c(C(=O)N[C@@H](C)C(C)(C)C)c(C)nn2C2CCN(CC(F)(F)F)CC2)cc1	1.08		< 3		0.117		< 3
CC(C)(C)NS(=O)(=O)c1cncc(-c2ccc3nc(N)nn3c2)c1	1.41		20		0.371	63.1 (≈ 21.9 µg/mL)	< 3
CCN(CC)CCNc1ncnc2c1sc1nc(N3CCOCC3)c3c(c12)CCCC3	3.3		26.3	9.55	0.0784		
CC(C)N(CCCNC(=O)Nc1ccc(C(C)(C)C)cc1)C[C@H]1O[C@@H](n2cnc3c(N)ncnc32)[C@H](O)[C@@H]1O	2.2		26.9	112	0.285		
CC(C)c1ccc(NC(=O)NCCCSC[C@H]2O[C@@H](n3cnc4c(N)ncnc43)[C@H](O)[C@@H]2O)cc1	2.5		110	126	0.0784		
Nc1ncnc2c1c(COc1cccc(Cl)c1)nn2C1CCOCC1	3.17		> 150		0.0477		46.8
CN[C@@H](C)C(=O)N[C@H](C(=O)N1CC[C@H]2CC[C@H](NC(=O)c3cccc4ccccc34)[C@H]21)C(C)(C)C	1.94		12	85.1	0.016		
Cc1oc(-c2ccccc2)cc1C(=O)Nc1cccc(C(=O)O)c1	1.63		66.1	4.17	0.002		
O=C(C1CCN(c2nnc(-n3cccc3)s2)CC1)N1CCN(Cc2ccc3c(c2)OCO3)CC1	2.5		50.1	> 150	0.0447		
CCc1cc2c(cc1N1CCC(N3CCOCC3)CC1)C(C)(C)c1[nH]c3cc(C#N)ccc3c1C2=O [ALECTINIB]		0.5	5.01				
CS(=O)(=O)c1ccc(-c2cnc(N)c(-c3ccc(C(F)(F)F)nc3)c2)cc1 [MMV-048]	2.4		4.79	6.17	0.194		
COC(=O)[C@H](c1ccccc1Cl)N1CCc2sccc2C1 [CLOPIDOGREL]	3.69		137		0.0136		> 150
Clc1cccc(-c2cnc3ccc(NC4CCOCC4)nn23)c1	4.3		14.8	9.12	0.009		
COc1ccc2nc(C)cc(N3CC(CNC(=O)C4CC4)OC3=O)c2c1 (stereo not given)	1.55		19.5		0.324		8.91
O=C(O)c1cncc(-c2ccc(Cl)c(C(=O)NCC34CC5CC(CC(C5)C3)C4)c2)c1	0.85		7		0.0099		66
CCc1[nH]c2nc(Sc3cnc4ccc[n+]([O-])c4c3)nc(N3C[C@@H]4[C@@H](N)[C@@H]4C3)c2c1Cl	2.3		58.9		0.0661		33.9
CC(C)N(CCCNC(=O)Nc1ccc(C(C)(C)C)cc1)C[C@H]1O[C@@H](n2ccc3c(N)ncnc32)[C@H](O)[C@@H]1O	2.4		33.9	> 150	0.201		
CCOc1ccc(-n2c([C@@H](C)N(CC3CCN(C)CC3)C(=O)Cc3ccc(F)c(C(F)(F)F)c3)nc3ncccc3c2=O)cc1	1.4		19.9	21.4	0.129		

Structure (SMILES)	logD (physchem [1])	fraction unbound at 5 h (in vitro [2])	hepatocyte CLint (in vitro [3]) [µL/min/1e6 cells]	microsomal CLint (in vitro [4]; liver microsomes) [µL/min/mg]	fraction unbound at 5 h (in vitro [5])	solubility thermodynamic (physchem [6]) [µM]	microsomal CLint (in vitro [4]; microsomes) [µL/min/mg]
O=S1(=O)CC(O)C(N2CCC(c3ccccc3)CC2)C1 (stereo not given)	1.4		75.9		0.569		5.25
CN[C@@H](C)C(=O)N[C@H](C(=O)N1CC[C@H]2CCN(CCc3ccccc3)C[C@H]21)C1CCCCC1	2.47		10.5	21.4	0.0568		
O=C(O)CCc1ccc(OCc2cc(Cl)ccc2-c2ccccc2)cc1	3.22		13.8		0.002		< 3
O=C(Nc1ccccc1Cl)c1cc[nH]n1	2.58		> 150		0.0661		138
C[C@@H](C(=O)NCCN1CCCC1)c1ccc(OS(=O)(=O)C(F)(F)F)cc1	1.64		6	< 3	0.324		
Nc1ncnc2c1ncn2[C@@H]1O[C@H](CSCCCNC(=O)Nc2ccc(Cl)cc2)[C@@H](O)[C@H]1O	2.5		93.3	21.4	0.0836		
Cc1cc(C)nc(SCC(N)=O)n1	0.23		< 3	< 3	0.788		
CCCNC(=O)CSc1ccc(S(=O)(=O)N2CCCC2)cn1	1.55		55		0.349		12.6
COc1ccc2c(Oc3ccc(CC(=O)Nc4cn(C)nc4C)c(OC)c3)ccnc2c1	3.5		23.4	24.6	0.0111	10.7 (≈ 4.63 µg/mL)	
O=C(Nc1cccc(Cl)c1)c1ccccn1	3.4	0.0488	> 150				
C[C@@H](NC(=O)C1CCNCC1)c1ccc(Nc2ncc3cc(-c4ccncc4)ccc3n2)cc1	0.4		< 3	4.17	0.0477		
COc1cc(O)c(C(CC(=O)N2CC(C)CC(C)C2)c2ccc3c(c2)OCO3)c(OC)c1 (stereo not given)	4.3		> 150		0.0024		> 150
CNCc1ccc(-c2[nH]c3cc(F)cc4c3c2CCNC4=O)cc1 [RUCAPARIB]	1.17		12		0.232	851 (≈ 275 µg/mL)	5.5
CNc1nc(C)c(-c2nc(Nc3cccc(N4CCNCC4)c3)ncc2C#N)s1	1.9		12.3		0.139		17.8
CC(=O)Nc1nc(CCc2ccc(NC(=N)N)cc2)cs1	-0.82		12.9	3.98	0.465		
CCOc1ccc(NC(C)=O)cc1 [PHENACETIN]	1.5		26.9	24.6	0.651		
CC(C)C(=O)Nc1nc(-c2ccccn2)cc2ccccc12	2.7		61.7	105	0.0245		
O=C(CSc1ccccc1)N1CCN(C(=O)c2ccco2)CC1	1.6		64.6	12.3	0.266		
C=CC(=O)Nc1cccc(CN2C(=O)N(c3c(Cl)c(OC)cc(OC)c3Cl)Cc3cnc(NCCCCN(CC)CC)nc32)c1	2.04		39.8	87.1	0.02		
Nc1ncnc2c1ncn2[C@@H]1O[C@H](CSCCCNC(=O)NCc2ccccc2)[C@@H](O)[C@H]1O	0.9		14.4		0.154		21.4
CCOC(=O)c1cnc2c(N)cccc2c1O	0.9		> 150	20.4	0.201		
O=C(CN1CCOCC1)Nc1ccc(-c2cccc3c(=O)cc(N4CCOCC4)oc23)cc1-c1ccccc1		0.0633	123				
O=C(Nc1nc2ccccc2n1CCCO)c1cccc([N+](=O)[O-])c1	3		85.1		0.0801		112
Cc1cc(OCCCS(C)(=O)=O)cc(C)c1-c1cccc(COc2ccc3c(c2)OC[C@H]3CC(=O)O)c1	2.3		10		0.0036	51.3 (≈ 26.9 µg/mL)	5.5
C[C@H](NC(=O)c1cccc2c1N(Cc1ccc(Cl)cc1)CC2)c1ccc(C(=O)O)cc1	1.47		13.2	15.8	0.0133		
COc1cnc(-c2ccccn2)nc1N(C)c1ccccc1	2.79		> 150	104	0.04		
